US20060239990A1, “Protein Arginine N-Methyltransferase 2 (PRMT-2)” (priority 2003, published 2006)

How the values were obtained:
[1] = tested on: IκBα; assay: Confocal quantification of nuclear IκBα in PRMT2−/− fibroblasts; assay type: cell-based, mouse; details: after TNF-α 30 min, 30 minutes LMB
Experimental: Immunohistochemistry and confocal microscopy. PRMT2^−/− fibroblasts were transfected with a HA-tagged PRMT2 expression vector. 36 hrs after transfection the cells were treated with TNF-α for 30 min. The media was then removed and cells were incubated for an additional 30 minutes in the presence or absence of LMB. Cells were fixed, permeabilized with CytoFix-CytoPerm (BD Biosciences) for 20 minutes, and washed with Perm/Wash buffer (BD Biosciences). IκBα (Rabbit Polyclonal antibody, 1:1000; Santa Cruz Biotechnology) and HA (Rat Monoclonal antibody, 1:500; Roche) were diluted in Perm/Wash buffer and incubated for 1 hr. After two washes cells were stained with anti rabbit Alexa 488 and anti rat Alexa […] (1:1000, Invitrogen) for 30 min. Cells were washed and mounted with Ultracruz mounting media (Santa Cruz) containing DAPI. Confocal microscopy was performed using a Leica confocal microscope.

[2] = tested on: Stat3; assay: Leptin-stimulated Stat3 tyrosine phosphorylation in VSMC nuclear extracts; assay type: cell-based, mouse; details: o-vanadate 200 μM pretreatment 15 min
Experimental: Cytoplasmic/nuclear extracts were prepared by Dounce homogenizing cells in Cytoplasmic lysis buffer (20 mM HEPES, pH7.9, 10 mM KCl, 1 mM MgCl2, 1% NP-40, 10% glycerol, 100 mM NaF, 1 mM Na3VO4, 1× protease inhibitors cocktail), and sedimenting nuclei by centrifugation at 1,000 rpm for 5 min. The supernatants were removed as samples of cytoplasmic fraction. The nuclei were extracted with nuclear lysis buffer (20 mM HEPES, pH7.9, 300 mM NaCl, 10 mM KCl, 1 mM MgCl2, 1% […], 10% glycerol, […], 1 mM Na3VO4, 1× protease inhibitors cocktail), and then subjected to the immunoblotting.
Immunoblotting was performed by boiling samples for 5 min at 95° C. followed by centrifugation for 1 min at 4° C. Aliquots of the supernatant were subjected to 7.5, 10% or 4-15% SDS-PAGE. Proteins in the gel were transferred to a nitrocellulose membrane by electroblotting. The membranes were treated with either anti-pTyr, anti-STAT3, anti-phospho STAT3, anti-α-metR, anti-IRS-1, anti-Flag, anti-phospho IRS-1, anti-arginine (mono- and di-methyl), or anti-β-actin antibodies followed by incubation with secondary antibodies conjugated with HRP. Immunoreactive proteins were detected either by ECL or by ECL plus system (Amersham Pharmacia Biotech). In some cases, bands were quantified using the NIH Image software (Image J version 1.2; National Institutes of Health, Bethesda, Md.). […]

[3] = molecular target: T1, RB (Homo sapiens, UniProt P06400); assay: In vitro binding assay with GST-RB; details: S35-labeled in vitro translated protein
T1 construct: coding region of RB cDNA was subcloned into pGEX-6P (Amersham/Pharmacia) for generation of GST-RB; made in house
T1 sequence (P06400 1-928): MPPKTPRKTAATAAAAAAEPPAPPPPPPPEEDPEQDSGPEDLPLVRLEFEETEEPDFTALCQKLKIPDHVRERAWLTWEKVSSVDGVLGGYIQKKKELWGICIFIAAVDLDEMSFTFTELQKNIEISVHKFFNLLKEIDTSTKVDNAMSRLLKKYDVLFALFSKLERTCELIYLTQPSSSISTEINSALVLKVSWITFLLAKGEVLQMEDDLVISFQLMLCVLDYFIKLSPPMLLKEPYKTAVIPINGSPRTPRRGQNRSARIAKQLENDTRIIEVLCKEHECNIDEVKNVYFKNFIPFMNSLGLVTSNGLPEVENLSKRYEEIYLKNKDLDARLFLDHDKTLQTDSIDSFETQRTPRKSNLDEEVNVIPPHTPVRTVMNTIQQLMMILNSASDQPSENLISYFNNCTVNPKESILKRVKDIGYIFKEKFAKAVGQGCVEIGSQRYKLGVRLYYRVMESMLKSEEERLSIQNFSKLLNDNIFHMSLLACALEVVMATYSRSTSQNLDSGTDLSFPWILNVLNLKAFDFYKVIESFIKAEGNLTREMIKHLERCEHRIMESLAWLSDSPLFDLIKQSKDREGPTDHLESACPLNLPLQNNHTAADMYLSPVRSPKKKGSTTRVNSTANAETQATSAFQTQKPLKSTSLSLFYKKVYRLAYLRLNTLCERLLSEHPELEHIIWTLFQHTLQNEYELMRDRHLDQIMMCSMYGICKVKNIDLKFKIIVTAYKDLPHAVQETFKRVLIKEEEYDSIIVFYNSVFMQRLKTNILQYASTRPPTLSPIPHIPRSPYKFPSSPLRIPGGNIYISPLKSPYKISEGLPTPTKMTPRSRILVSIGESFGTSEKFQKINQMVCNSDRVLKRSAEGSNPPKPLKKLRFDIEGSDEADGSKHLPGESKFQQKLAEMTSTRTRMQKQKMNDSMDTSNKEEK
Experimental: The crude cell lysate of the GST-fusion proteins was prepared and purified according to the manufacture's protocol (Amersham/Pharmacia). [^35S]-methionine-labeled protein was produced by in vitro transcription/translation using the TNT T7-coupled reticulocyte lysate system (Promega). [^35S]-methionine-labeled protein and GST-fusion protein bound to glutathione sepharose 4B beads were incubated in 500 μl of HNE buffer (50 mM Hepes, pH 7.8, 150 mM NaCl, 1 mM EDTA, 1 mM DTT, 1% NP40, and 1× protease inhibitor mix (Complete: Roche)) at 4° C. for 1 hour. Beads were washed four times with HNE buffer, and then analyzed on an SDS-PAGE gradient gel (4-15%). For the detection of endogenous PRMT-2 interaction with RB, MEFs were lysed with WCL buffer (50 mM Hepes, pH 7.8, 400 mM NaCl, 2 mM EDTA, 1 mM DTT, 0.2% NP40, 10% Glycerol, 20 mM α-glycerophosphate, 5 mM NaF, 0.1 mM NaVO4, and 1× protease inhibitor mix). Then, 1 mg of whole cell extracts were incubated with HNE buffer without DTT and 3 μg of antibodies as indicated. The immune complexes were isolated using protein G beads, and washed four times with HNE buffer. The precipitated protein was boiled with SDS-loading buffer and resolved on SDS-PAGE. […]

[4] = tested on: HIV-1 LTR; assay: HIV-1 reporter transcription, transient co-transfection; assay type: cell-based, human; details: 293T cells, expression plasmid co-transfected with HIV-1 reporter plasmid
Experimental: Cell culture, transfection, and reporter gene assays. The E1A-transformed, human kidney cell line, 293, and NIH-3T3 cells were maintained in Dulbecco's Modified Eagle Medium (DMEM) supplemented with 10% fetal calf serum and penicillin-streptomycin at 37° C. in 5% carbon dioxide in tissue culture grade Petri dishes. PRMT-2−/− mouse embryo fibroblasts (MEFs) and wild type MEFs were prepared from day 13.5 embryos and maintained in DMEM supplemented with 10% fetal calf serum. MEFs at passage 4 were used in this experiment. Lipofectamine Plus™ reagent (Boehringer Mannheim) was used to transfect both 293 and NIH-3T3 cells according to directions from the manufacturer. […] TNF-α stimulation of cells was done using recombinant TNF-α (200 U/ml) for 12 hours. Transfected cells were harvested at 36 hours, and CAT activity was assayed on 10 to 100 μg of protein from whole cell extracts. CAT assays were performed essentially as described in Leung, K. & Nabel, G. J. Nature 333, 776-778 (1988). To analyze the κB-reporter activity in MEFs, cells were transfected with the reporter (2×kB-Luc) and PRL-TK vector (Promega) using FuGENE6 transfection reagent (Roche). Luciferase activity was analyzed by Dual-Luciferase Reporter Assay System (Promega). […]

CCC(=C/[C@H](C)C/C=C/C(C)=C/[C@@H](C)C(=O)[C@@H](C)[C@H](O)[C@@H](C)C/C(C)=C/C(=O)O)/C=C/[C@@H]1OC(=O)C=C[C@@H]1C [LMB, leptomycin B]
nuclear IκBα [1]: promoted nuclear accumulation of IκBα

[O]=[V]([O-])([O-])[O-] [o-vanadate]
leptin-stimulated tyrosine phosphorylation of Stat3 ([2]; PRMT2−/− VSMC nuclear extracts): no enhancement of tyrosine phosphorylation of Stat3
leptin-stimulated tyrosine phosphorylation of Stat3 ([2]; wild-type VSMC nuclear extracts): further enhanced leptin-stimulated tyrosine phosphorylation of Stat3

PRMT1: human protein arginine methyltransferase 1, expression construct [reference compound]
binding to RB [3]: do not bind RB
stimulation of HIV-1 transcription [4]: about 10 fold
